Experiments:
[1] = system: Melatonin receptor (Xenopus laevis); experiment: Percent maximum effect relative to melatonin (100%)
Melatonin receptor = Melatonin receptor (Gallus gallus, UniProt P49288+P51050+P49285); experiment: Inhibition of 2-[125I]- iodomelatonin from chicken brain melatonin receptors
[2] = target: Melatonin receptor (Xenopus laevis); experiment: Functional activity against melatonin receptor in lightening Xenopus laevis tadpole skin
[3] = target: Melatonin receptor (Xenopus laevis); experiment: The functional activity on melatonin receptor was evaluated by its potency to lighten the skin of Xenopus laevis tadpoles

Activity [1] | Ki (Melatonin receptor) | EC50 [2] | EC50 [3] | SMILES
40% | 8.6 nM | > 1000 nM | – | CCC(=O)NC1Cc2cccc3ccc(OC)c(c23)C1 (racemic)
0% | 36.5 nM | > 1000 nM | – | COc1ccc2cccc3c2c1CC(NC(C)=O)C3 (racemic)
0% | 38.3 nM | > 1000 nM | – | COc1ccc2cccc3c2c1C[C@@H](NC(C)=O)C3
– | 787 nM | > 1000 nM | – | O=C(NCCc1cccc2ccccc12)C1CCC1
– | 3.2 nM | – | – | CCCC(=O)N[C@H]1Cc2cccc3ccc(OC)c(c23)C1
100% | – | 0.037 nM | – | COc1ccc2ccc(OC)c(CCNC(C)=O)c2c1
– | 9 nM | – | – | CCC(=O)N[C@H]1Cc2cccc3ccc(OC)c(c23)C1
40% | 1.7 nM | – | > 1000 nM | CCCC(=O)NC1Cc2cccc3ccc(OC)c(c23)C1 (racemic)
– | 7.6 nM | – | – | CCC(=O)N[C@@H]1Cc2cccc3ccc(OC)c(c23)C1
0% | 28.7 nM | > 1000 nM | – | COc1ccc2cccc3c2c1C[C@H](NC(C)=O)C3
– | 10 nM | – | – | CCCC(=O)N[C@@H]1Cc2cccc3ccc(OC)c(c23)C1
